In series [1] the target is T1, recombinant CYP1B1 (Homo sapiens, UniProt Q16678).
T1 sequence (Q16678 51-543 limits assumed): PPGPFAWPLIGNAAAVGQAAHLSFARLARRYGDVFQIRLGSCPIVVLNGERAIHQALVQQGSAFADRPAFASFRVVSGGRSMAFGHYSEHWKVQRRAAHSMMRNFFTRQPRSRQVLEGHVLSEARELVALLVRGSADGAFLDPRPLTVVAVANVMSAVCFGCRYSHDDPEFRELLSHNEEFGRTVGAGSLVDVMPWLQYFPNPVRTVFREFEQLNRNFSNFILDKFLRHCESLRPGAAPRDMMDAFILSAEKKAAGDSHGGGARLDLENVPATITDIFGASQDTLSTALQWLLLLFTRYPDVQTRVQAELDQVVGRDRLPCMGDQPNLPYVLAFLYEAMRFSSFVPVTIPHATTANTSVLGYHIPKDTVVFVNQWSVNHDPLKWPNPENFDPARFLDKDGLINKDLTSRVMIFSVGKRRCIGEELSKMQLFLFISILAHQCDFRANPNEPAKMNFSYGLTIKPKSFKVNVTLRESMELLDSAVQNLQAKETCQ
As to the kind of experiment: CYP1B1 stability: thermal melt by circular dichroism. The procedure:
Circular Dichroism (CD) was used to monitor changes in the secondary structure with increasing temperature. […] CYP1B1 was expressed and purified as reported. […] Spectra were taken scanning from 200 to 260 nm in duplicate. The temperature was increased followed by a 3 min equilibration period before spectra acquisition. The ellipticity values at 230 nm were plotted against temperature and fit to determine the Tm (Prism).
Background: CD spectra are sensitive to the conformation of chiral molecules.

A short description of series [2]: Stability of complexes at 37 °C in the dark (HPLC, UV/Vis). Format: physicochemical. The following applies: for Stability, % remaining at 24 h: 37 °C in H2O, dark. The procedure:
The stability of each complex was assessed over 24 h under aqueous conditions at 37 °C (Supplementary Figs. 12–15). […] Given the potency of the caged inhibitor, thermal stability is of critical importance, making complex 6 the preferred photocaged candidate.
Opti-MEM with 2% fetal bovine serum (right) at 37 °C in the dark over the course of 0 (blue line) to 24 h (black dashed line). Compounds were tested in triplicate (n = 3), the data for one replicate are presented. Complexes 4 and 5 slowly degraded in the experiment condition (see HPLC traces, Figures S13–14). The decrease in absorbance for complex 6 is explained by the slow aggregation of the compound in the 96-well plate.
(1 picture or pasted object on this page, not shown here)
Supplementary Figure 13. a HPLC chromatogram analysis of stability of 4 (50 µM in di-H2O) before (black dashed line, purity > 92 % ) and after incubation at 37 °C for 24 hours (red line). At 24 hours, 43 % of 4 was […]
Supplementary Figure 14. HPLC chromatogram analysis of stability of 5 (50 µM in di-H2O) before (black dashed line, purity > 97 %) and after incubation at 37 °C for 24 hours (red line). At 24 hours, 50 % of 5 was observed […]
Supplementary Figure 15. HPLC chromatogram analysis of stability of 6 (40 µM in di-H O : MeCN mixture (4:1), […]
MeCN was added to reduce the aggregation) before (black dashed line, purity > 99.5 %) and after incubation at 37 °C for 24 hours. At 24 hours, less than 2 % degradation was observed (calculated by area, detection wavelength = […]
Supplementary Figure 16. HPLC chromatogram analysis of stability of 6 (40 µM) in 5 % DMSO / di-H2O with a 100 μM GSH, b 100 μM imidazole and c acidic condition (pH = 1) after incubation at 37 °C for 72 hours. Less than […]
detection wavelength = 280 nm). […]
imidazole and c acidic condition (pH = 1) after incubation at 37 °C for 72 hours. d At 72 hours less than 7 % degradation was observed by HPLC at pH = 1 (calculated by area, detection wavelength = 280 nm). Compounds were tested in triplicate (n = 3), the data for one replicate are presented.

`COc1ccc(C=Cc2ccncc2)c(OC)c1` [Compound 3]: the “increase of thermal stability of CYP1B1” value in series [1] (10 μM compound) is 2 °C. Further, in series [1] (recombinant CYP1B1 + 10 µM compound, no compound 47.9), the Tm is 50.4 +/− 0.26 °C.
On to `COc1ccc(/C=C/c2cc[n+]([Ru-4]345([n+]6ccccc6-c6cccc([n+]63)-c3cccc[n+]34)[n+]3c(cc(C(=O)[O-])c4ccccc43)-c3cc(C(=O)[O-])c4ccccc4[n+]35)cc2)c(OC)c1` [Compound 6], for which, in series [2] (5 % DMSO / di-H2O, 100 μM GSH, 37 °C, 72 hours), the “degradation with GSH” value was “less than 2%”. Also, the degradation with imidazole entry in series [2] (5 % DMSO / di-H2O, 100 μM imidazole, 37 °C, 72 hours) is given as “less than 2%”. Moreover, the “Stability, % remaining at 24 h” value in series [2] (HPLC) is given as 98.6%. The “degradation at 24 hours” value in series [2] (37 °C, di-H2O : MeCN mixture (4:1), HPLC) is given as “less than 2%”.
Take `COc1ccc(/C=C/c2cc[n+]([Ru-4]345([n+]6ccccc6-c6cccc([n+]63)-c3cccc[n+]34)[n+]3c(cc(C(=O)[O-])c4ccccc43)-c3cc(C(=O)[O-])c4ccccc4[n+]35)cn2)c(OC)c1` [Compound 5]: the “Stability, % remaining at 24 h” value in series [2] (HPLC) turned out to be 50%.

(Values after publication PMC9233675, “Ru(II) photocages enable precise control over enzyme activity with red light” (Nature Communications, 2022).)
